Laboratory results taken from PubChem BioAssay (NCI).
Where “and” joins values, the source holds several entries; their conditions need not be identical. Equal values may be shown once.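 Assay format: 96-well plates, 48-hour exposure. At the GI50, growth is halved. Definition used: TGI = concentration required for complete inhibition of growth.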

Assays:
Experiment in all cases: NCI-60 cell line screen, 48 h
A498 renal = system: A498 renal
COLO 205 colon = system: COLO 205 colon
HT29 colon = system: HT29 colon
IGROV1 ovarian = system: IGROV1 ovarian
MCF7 breast = system: MCF7 breast
MDA-MB-435 = system: MDA-MB-435
NCI-H460 lung = system: NCI-H460 lung
NCI/ADR-RES ovarian = system: NCI/ADR-RES ovarian
SF-539 CNS = system: SF-539 CNS
SNB-75 CNS = system: SNB-75 CNS

SMILES | GI50 (A498 renal) | TGI (A498 renal) | GI50 (COLO 205 colon) | TGI (COLO 205 colon) | GI50 (HT29 colon) | TGI (HT29 colon) | GI50 (IGROV1 ovarian) | TGI (IGROV1 ovarian) | GI50 (MCF7 breast) | TGI (MCF7 breast) | GI50 (MDA-MB-435) | TGI (MDA-MB-435) | GI50 (NCI-H460 lung) | TGI (NCI-H460 lung) | GI50 (NCI/ADR-RES ovarian) | TGI (NCI/ADR-RES ovarian) | GI50 (SF-539 CNS) | TGI (SF-539 CNS) | GI50 (SNB-75 CNS) | TGI (SNB-75 CNS)
Cc1cn(-c2cc(NC(=O)c3cccc(C#Cc4cccc5[nH]nc(N)c45)c3)cc(C(F)(F)F)c2)cn1 | 4.09 µM | 82.4 µM | 2.45 µM | 15.8 µM | 2.55 µM | 17.7 µM | 5.29 µM | 83.2 µM | 3.6 µM | > 100 µM | 3.74 µM | 37 µM | 4.13 µM | 16.7 µM | 13.5 µM | > 100 µM | 1.3 µM | 14.3 µM | 2.19 µM | 9.02 µM
Cc1cc(Cl)ccc1OCC(=O)Nc1nc2c(Cl)cccc2s1 | > 100 µM | > 100 µM | > 100 µM | > 100 µM | > 100 µM | > 100 µM | > 100 µM | > 100 µM | 11.2 µM | 24 µM | > 100 µM | > 100 µM |  | > 100 µM | 23.8 µM | > 100 µM | 17.4 µM | > 100 µM | 23.7 µM | > 100 µM
Cc1ccc(C)c(NC(=O)CC2Sc3ccccc3NC2=O)c1 (centres undefined) | 15.1 µM and 34 µM | 23.7 µM and 60.9 µM |  | > 100 µM | 31.4 µM and > 100 µM | > 100 µM |  | 36.6 µM and > 76.3 µM |  | > 100 µM |  | 85 µM and > 100 µM | 33.6 µM and > 74.1 µM | > 100 µM |  | > 74.3 µM |  | 41.2 µM and 68.8 µM |  | 18.8 µM and 29.8 µM
N[C@H](C(=O)O)[C@@H]1CC(Cl)=NO1 | 45.5 µM | > 887 µM | 43.6 µM | > 1000 µM | 7.44 µM | > 811 µM | 4.41 µM | 465 µM | 4.77 µM | 325 µM | 25.3 µM | > 645 µM | 3.22 µM | > 1000 µM | 37.7 µM | 530 µM | 25.4 µM | 916 µM |  | > 1000 µM
COc1cccc2c1C(=N)c1c(O)c3c(c(O)c1C2=O)C[C@@](O)(C(C)=O)C[C@@H]3O[C@H]1C[C@H](N)[C@H](O)[C@H](C)O1 | 1.5 µM | 5.86 µM |  | 3.16 µM | 0.316 µM | 2.09 µM | 0.645 µM | 6.25 µM | 0.0379 µM | 5.2 µM | 1.66 µM | 8.91 µM | 0.0472 µM | 0.833 µM | 45.3 µM | > 100 µM | 0.174 µM | 1.48 µM | 0.159 µM | 2.08 µM
CN(c1ccc(NC(=O)Nc2c(Cl)cccc2Cl)cc1)c1ccnc(Nc2cccc(CS(C)(=O)=O)c2)n1 | 4.4 µM | > 20.3 µM | 0.16 µM | 11.9 µM | 2.16 µM | 7.81 µM | 4.57 µM | > 17 µM | 2.82 µM | > 14.3 µM | 2.26 µM | 10.9 µM | 0.505 µM | 11.6 µM | 5.49 µM | > 25 µM | 0.304 µM | 6.4 µM | 1.69 µM | 7 µM
C=C(C)C1CC2(C)C(C)CC(O)CC2C(OC(=O)C=C(C)C)C1O (centres undefined) |  | > 100 µM |  | 32.4 µM |  | 69.8 µM |  | > 100 µM |  | 86 µM |  | > 100 µM |  | 57.2 µM |  | > 100 µM |  | > 100 µM |  | 40.5 µM
Cc1cc(N(CC(C)Br)CC(C)Br)ccc1N=Nc1ccccc1C(=O)O (centres undefined) |  | 3.91 µM |  | 19.7 µM |  | 14.2 µM |  | 24.2 µM |  | 7.67 µM |  | 33.5 µM |  | 11.7 µM |  | > 100 µM |  | 4.39 µM |  | 11.2 µM
CNC(=O)OCc1c(COC(=O)NC)c(-c2ccc(-c3ccccc3)cc2)n(C)c1C |  | 2.39 µM |  | 16.5 µM |  | 13.9 µM |  | 12 µM |  | 14.5 µM |  | 21.9 µM |  | 12.2 µM |  | 12.6 µM |  | 8.37 µM |  | 10.6 µM
CCN1C(=O)/C(=C/c2c(Cl)[nH]c3cc(C)c(OC)cc23)c2ccccc21 | 5.95 µM | 33 µM | 2.77 µM | 15.4 µM | 1.55 µM | > 100 µM | 2.07 µM | > 100 µM | 0.409 µM | > 100 µM | 0.315 µM | 0.737 µM | 3.31 µM | 70.2 µM | 4.65 µM | 65 µM | 0.251 µM | 0.52 µM | 13.8 µM | > 100 µM
NCCCNCCS |  | > 100 µM | > 100 µM and 46.9 µM | > 100 µM |  | > 100 µM |  | > 100 µM |  | > 100 µM |  | > 100 µM |  | > 100 µM |  | > 100 µM |  | > 100 µM |  | > 100 µM
CCCCCCCCn1ccc2cc(NC(=O)Cn3cc(CN4CCCCCC4)nn3)ccc21 | 1.76 µM | 3.2 µM | 1.68 µM | 3.25 µM | 1.73 µM | 3.46 µM | 1.72 µM | 3.33 µM | 1.83 µM | 3.63 µM | 1.69 µM | 3.18 µM | 1.85 µM | 3.45 µM | 1.79 µM | 3.56 µM | 1.76 µM | 3.21 µM | 1.55 µM | 2.91 µM
Cc1ccc(C2=C(c3ccc(C)cc3)C3(c4ccc(C)cc4)C4C(=O)OC(=O)C4C2(c2ccc(C)cc2)S3=O)cc1 (centres undefined) | 21.9 µM | 63.4 µM | 51.2 µM | > 100 µM | 25.3 µM | > 100 µM | 25.7 µM | > 100 µM | 29.2 µM | > 100 µM | 17.5 µM | 63.7 µM | 24.9 µM | > 100 µM | 46.4 µM | > 100 µM | 6.3 µM | 31.9 µM | 15.3 µM | 36.8 µM
O=C1C(=O)c2ccccc2C(O)=C1C(C1=C(O)c2ccccc2C(=O)C1=O)c1ccc(Cl)cc1 |  | 34 µM |  | 35.6 µM |  | 20.9 µM |  | 27.2 µM |  | 11.4 µM |  | 3.38 µM |  | 28.9 µM |  | > 77.5 µM |  | 32.9 µM |  | 9.83 µM
CCN(CC)CCNC(Cc1ccccc1)c1ccc(OCc2ccccc2)cc1 (centres undefined) | 2.02 µM | 7.94 µM | 1.79 µM | 3.4 µM | 2.44 µM | 11.8 µM | 4.43 µM | 17.1 µM | 3.03 µM | 12 µM | 3.16 µM | 11 µM | 3.56 µM | 12.9 µM | 9.87 µM | 23.2 µM | 5.26 µM | 18.6 µM | 4.29 µM | 18 µM
CC/C=C\C[C@H]1CC=C2C(=O)C=C[C@@H]2CC=CCCCC(=O)O[C@@H](CCCCC)CC=C2C(=O)C=C[C@@H]2CC=CCCCC(=O)O[C@@H](CCCCC)CC=C2C(=O)C=C[C@@H]2CC=CCCCC(=O)O[C@@H](CCCCC)CC=C2C(=O)C=C[C@@H]2CC=CCCCC(=O)O1 | 2.25 µM | > 7.9 µM | 1.64 µM | 3.6 µM | 2.86 µM | 6.93 µM | 2.32 µM | 7.81 µM | 1.46 µM | > 7.9 µM | 1.59 µM | 4.54 µM | 2.45 µM | > 7.9 µM | > 7.9 µM | > 7.9 µM | 2.22 µM | > 7.9 µM | 3.8 µM | > 7.9 µM
NC(CSC(c1ccccc1)(c1ccccc1)c1ccccc1)C(=O)NCC(=O)O (centres undefined) | 4.31 µM | 86.1 µM | 3.39 µM | > 100 µM | 22 µM | 97.6 µM | 10.7 µM | > 100 µM | 3.87 µM | > 100 µM | 2.38 µM | 6.8 µM | 4.27 µM | 78.8 µM | 26.5 µM | > 100 µM | 2.54 µM | 7.46 µM | 2.95 µM | 27.7 µM
CCOc1cccc(/C=N/NC(=O)c2cccc(Nc3ccnc(C(F)(F)F)c3)c2)c1O | 15 µM | > 76.9 µM | 0.532 µM | 18.4 µM | 5.34 µM | > 82.7 µM | 0.852 µM | > 52.6 µM | 0.945 µM | 21.1 µM | 3.1 µM | > 51.2 µM | 1.17 µM | 9.53 µM | 3.02 µM | 27.8 µM | 1.32 µM | 10.6 µM | 11.2 µM | 39.2 µM
Nc1ncnc2c1ncn2C1C=C(CO)C(O)C1O (centres undefined) |  | 43.5 µM |  | 19.5 µM |  | > 100 µM |  | > 54.3 µM |  | > 100 µM |  | > 100 µM |  | 34.8 µM |  | 74.8 µM |  | > 91.1 µM |  | 48.9 µM
O=C(O)CSCCc1ccccc1 |  | > 100 µM |  | > 100 µM |  | > 100 µM |  | > 100 µM |  | > 100 µM |  | > 100 µM |  | > 100 µM |  | > 100 µM |  | > 100 µM |  | > 100 µM
CCCCCCCCCCCCCCCCCCOC[C@H](COP(=O)(O)O[C@H]1[C@H](O)[C@@H](O)[C@H](O)C[C@H]1O)OC |  | > 100 µM | 26.6 µM and 11 µM | > 100 µM and 24.2 µM | 58.7 µM and 13.1 µM | > 100 µM and 26.2 µM | 21.9 µM and 3.28 µM | 60.6 µM and 13.5 µM | > 100 µM and 17.3 µM | > 100 µM and 32.2 µM | 65.9 µM and 11.8 µM | > 100 µM and 43.8 µM | 79.4 µM and 11.7 µM | > 100 µM and 26.1 µM | > 100 µM and 18.3 µM | > 100 µM and 33.5 µM | > 100 µM and 16.2 µM | > 100 µM and 31 µM |  | 59.6 µM and 27.9 µM
